Assay results: PMC4348164, “Evidence of more ion channels inhibited by celecoxib: KV1.3 and L-type Ca^2+ channels” (BMC Research Notes, 2015)

Molecular target: T1, human KV1.3 channels (Homo sapiens, UniProt P22001)
T1 construct: gene KCNA3; homotetramer
Test: whole-cell patch clamp, CHO cells
Assay type: cell-based

T1 sequence (P22001 whole entry): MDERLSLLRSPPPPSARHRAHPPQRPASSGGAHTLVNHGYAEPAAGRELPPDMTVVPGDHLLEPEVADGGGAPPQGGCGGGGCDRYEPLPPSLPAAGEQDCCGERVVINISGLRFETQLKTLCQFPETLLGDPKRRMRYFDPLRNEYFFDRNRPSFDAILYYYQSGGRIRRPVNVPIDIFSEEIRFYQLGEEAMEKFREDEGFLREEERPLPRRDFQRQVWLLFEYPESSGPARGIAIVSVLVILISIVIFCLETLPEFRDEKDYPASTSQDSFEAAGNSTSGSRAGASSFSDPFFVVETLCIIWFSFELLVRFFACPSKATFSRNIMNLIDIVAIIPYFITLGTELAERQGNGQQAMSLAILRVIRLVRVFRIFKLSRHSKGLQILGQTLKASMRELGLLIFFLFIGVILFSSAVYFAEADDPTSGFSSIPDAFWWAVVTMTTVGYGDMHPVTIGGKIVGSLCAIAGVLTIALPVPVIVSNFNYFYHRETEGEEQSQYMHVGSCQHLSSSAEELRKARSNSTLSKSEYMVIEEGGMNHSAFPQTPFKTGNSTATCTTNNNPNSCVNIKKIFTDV

IC50: 5 µM
SMILES: Cc1ccc(-c2cc(C(F)(F)F)nn2-c2ccc(S(N)(=O)=O)cc2)cc1 [celecoxib]
